Laboratory results taken from PubChem BioAssay (NCI).
Several values for one entry are separate records, joined by “and”; a condition that tells them apart may be missing. Equal values may be shown once.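 A five-concentration, 48-hour dose response in 96-well plates underlies each endpoint, interpolated linearly between surrounding concentrations. Abbreviation: GI50, concentration required for 50% inhibition of growth. At the TGI there is no net growth.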

Columns and labels:
Test in all cases: NCI anticancer screen, dose series, 48 h
786-0 renal = system: 786-0 renal
A549 NSCLC = system: A549 NSCLC
ACHN renal = system: ACHN renal
CAKI-1 renal = system: CAKI-1 renal
CCRF-CEM leukemia = system: CCRF-CEM leukemia
COLO 205 colon = system: COLO 205 colon
DMS 114 small cell lung = system: DMS 114 small cell lung
DMS 273 small cell lung = system: DMS 273 small cell lung
HCC-2998 colon = system: HCC-2998 colon
HL-60(TB) leukemia = system: HL-60(TB) leukemia
HOP-18 NSCLC = system: HOP-18 NSCLC
HOP-62 NSCLC = system: HOP-62 NSCLC
K-562 leukemia = system: K-562 leukemia
LOX IMVI melanoma = system: LOX IMVI melanoma
LXFL 529 NSCLC = system: LXFL 529 NSCLC
M19-MEL melanoma = system: M19-MEL melanoma
MALME-3M melanoma = system: MALME-3M melanoma
MOLT-4 leukemia = system: MOLT-4 leukemia
NCI-H23 lung = system: NCI-H23 lung
NCI-H460 lung = system: NCI-H460 lung
OVCAR-4 ovarian = system: OVCAR-4 ovarian
OVCAR-5 ovarian = system: OVCAR-5 ovarian
OVCAR-8 ovarian = system: OVCAR-8 ovarian
RPMI-8226 leukemia = system: RPMI-8226 leukemia
SF-268 CNS = system: SF-268 CNS
SF-295 CNS = system: SF-295 CNS
SK-MEL-28 melanoma = system: SK-MEL-28 melanoma
SK-OV-3 ovarian = system: SK-OV-3 ovarian
SN12C renal = system: SN12C renal
SNB-75 CNS = system: SNB-75 CNS
SW-620 colon = system: SW-620 colon
TK-10 renal = system: TK-10 renal
UO-31 renal = system: UO-31 renal
A498 renal = system: A498 renal
BT-549 breast = system: BT-549 breast
DLD-1 colon = system: DLD-1 colon
DU-145 prostate = system: DU-145 prostate
EKVX NSCLC = system: EKVX NSCLC
HCT-116 colon = system: HCT-116 colon
HCT-15 colon = system: HCT-15 colon
HOP-92 NSCLC = system: HOP-92 NSCLC
HS 578T breast = system: HS 578T breast
HT29 colon = system: HT29 colon
IGROV1 ovarian = system: IGROV1 ovarian
KM12 colon = system: KM12 colon
KM20L2 colon = system: KM20L2 colon
M14 melanoma = system: M14 melanoma
MDA-MB-231 breast = system: MDA-MB-231 breast
MDA-MB-435 = system: MDA-MB-435
NCI/ADR-RES ovarian = system: NCI/ADR-RES ovarian
PC-3 prostate = system: PC-3 prostate
RXF 393 renal = system: RXF 393 renal
SF-539 CNS = system: SF-539 CNS
SK-MEL-2 melanoma = system: SK-MEL-2 melanoma
SK-MEL-5 melanoma = system: SK-MEL-5 melanoma
SNB-19 CNS = system: SNB-19 CNS
SNB-78 CNS = system: SNB-78 CNS
SR leukemia = system: SR leukemia
T-47D breast = system: T-47D breast
U251 CNS = system: U251 CNS
UACC-257 melanoma = system: UACC-257 melanoma
UACC-62 melanoma = system: UACC-62 melanoma
XF 498 CNS = system: XF 498 CNS

In the case of `COc1cc([C@@H]2c3cc4c(cc3[C@@H](OC(=O)c3ccccc3)C3COC(=O)[C@@H]32)OCO4)cc(OC)c1O` (stereo partly drawn), the TGI (786-0 renal) is reported as 45500 nM, the TGI (A549 NSCLC) is reported as 35600 nM and the TGI (ACHN renal) is reported as 18400 nM. For the same compound, the TGI (CAKI-1 renal) was 79200 nM, the TGI (CCRF-CEM leukemia) was > 100000 nM and the TGI (COLO 205 colon) was 963 nM. For the same compound, the TGI (DMS 114 small cell lung) was 22.9 nM, the TGI (DMS 273 small cell lung) was > 100000 nM and the TGI (HCC-2998 colon) was > 100000 nM. The TGI (HL-60(TB) leukemia) was 15400 nM, the TGI (HOP-18 NSCLC) was > 100000 nM and the TGI (HOP-62 NSCLC) was 28700 nM. For the same compound, the TGI (K-562 leukemia) was > 100000 nM, the TGI (LOX IMVI melanoma) was 84500 nM and the TGI (LXFL 529 NSCLC) was > 100000 nM. For the same compound, the TGI (M19-MEL melanoma) was 69000 nM, the TGI (MALME-3M melanoma) was 29900 nM and the TGI (MOLT-4 leukemia) was 41400 nM. The TGI (NCI-H23 lung) was 64.2 nM, the TGI (NCI-H460 lung) was 20900 nM and the TGI (OVCAR-4 ovarian) was > 100000 nM. The TGI (OVCAR-5 ovarian) was > 100000 nM, the TGI (OVCAR-8 ovarian) was > 100000 nM and the TGI (RPMI-8226 leukemia) was 44000 nM. For the same compound, the TGI (SF-268 CNS) was > 100000 nM, the TGI (SF-295 CNS) was > 100000 nM and the TGI (SK-MEL-28 melanoma) was > 100000 nM. For the same compound, the TGI (SK-OV-3 ovarian) was > 100000 nM, the TGI (SN12C renal) was 26900 nM and the TGI (SNB-75 CNS) was 36800 nM. The TGI (SW-620 colon) was > 100000 nM, the TGI (TK-10 renal) was > 100000 nM and the TGI (UO-31 renal) was 33500 nM.

With `CN(C)c1ccc(C(=C2C=CC(=[N+](C)C)C=C2)c2ccc(N(C)C)cc2)cc1` the GI50 (786-0 renal) was 187 nM, the TGI (786-0 renal) was 709 nM and 1170 nM and the GI50 (A498 renal) was 145 nM. For the same compound, the TGI (A498 renal) was 622 nM, the TGI (A549 NSCLC) was 1200 nM and 2480 nM and the GI50 (ACHN renal) was 253 nM. For the same compound, the TGI (ACHN renal) was 1170 nM and 1010 nM, the GI50 (BT-549 breast) was 180 nM and the TGI (BT-549 breast) was 621 nM. For the same compound, the GI50 (CAKI-1 renal) was 249 nM, the TGI (CAKI-1 renal) was 788 nM and 2430 nM and the TGI (CCRF-CEM leukemia) was 832 nM. The GI50 (COLO 205 colon) was 97.4 nM, the TGI (COLO 205 colon) was 447 nM and 751 nM and the TGI (DLD-1 colon) was 1740 nM. For the same compound, the TGI (DMS 273 small cell lung) was 1150 nM, the GI50 (DU-145 prostate) was 78.3 nM and the TGI (DU-145 prostate) was 1230 nM. The GI50 (EKVX NSCLC) was 149 nM, the TGI (EKVX NSCLC) was 1410 nM and 1500 nM and the GI50 (HCC-2998 colon) was 194 nM. The TGI (HCC-2998 colon) was 1170 nM and 934 nM, the GI50 (HCT-116 colon) was 36.3 nM and the TGI (HCT-116 colon) was 360 nM. The TGI (HCT-15 colon) was 1350 nM and 1260 nM, the GI50 (HL-60(TB) leukemia) was 160 nM and the TGI (HL-60(TB) leukemia) was 493 nM and 173 nM. The GI50 (HOP-62 NSCLC) was 44.7 nM, the TGI (HOP-62 NSCLC) was 1110 nM and 2430 nM and the GI50 (HOP-92 NSCLC) was 145 nM. For the same compound, the TGI (HOP-92 NSCLC) was 461 nM, the GI50 (HS 578T breast) was 87.5 nM and the TGI (HS 578T breast) was 2820 nM. The GI50 (HT29 colon) was 36.3 nM, the TGI (HT29 colon) was 158 nM and the GI50 (IGROV1 ovarian) was 264 nM. The TGI (IGROV1 ovarian) was 2260 nM and 1400 nM, the TGI (K-562 leukemia) was 1100 nM and 143 nM and the GI50 (KM12 colon) was 78.1 nM. For the same compound, the TGI (KM12 colon) was 397 nM and 930 nM, the TGI (KM20L2 colon) was 938 nM and the TGI (LXFL 529 NSCLC) was 1030 nM. For the same compound, the GI50 (M14 melanoma) was 140 nM, the TGI (M14 melanoma) was 598 nM and 1390 nM and the TGI (M19-MEL melanoma) was 1410 nM. For the same compound, the GI50 (MALME-3M melanoma) was 216 nM, the TGI (MALME-3M melanoma) was 879 nM and 773 nM and the GI50 (MDA-MB-231 breast) was 246 nM. The TGI (MDA-MB-231 breast) was 1260 nM, the GI50 (MDA-MB-435) was 152 nM and the TGI (MDA-MB-435) was 431 nM. For the same compound, the GI50 (MOLT-4 leukemia) was 297 nM, the TGI (MOLT-4 leukemia) was 2410 nM and 543 nM and the TGI (NCI-H23 lung) was 370 nM. For the same compound, the TGI (NCI-H460 lung) was 1550 nM, the GI50 (NCI/ADR-RES ovarian) was 410 nM and the TGI (NCI/ADR-RES ovarian) was 2000 nM. The TGI (OVCAR-4 ovarian) was 1050 nM, the GI50 (OVCAR-5 ovarian) was 295 nM and the TGI (OVCAR-5 ovarian) was 1170 nM and 578 nM. The GI50 (PC-3 prostate) was 178 nM, the TGI (PC-3 prostate) was 963 nM and the GI50 (RPMI-8226 leukemia) was 35.8 nM. The TGI (RPMI-8226 leukemia) was 165 nM and 163 nM, the GI50 (RXF 393 renal) was 113 nM and the TGI (RXF 393 renal) was 468 nM and 695 nM. The TGI (SF-295 CNS) was 244 nM and 885 nM, the GI50 (SF-539 CNS) was 190 nM and the TGI (SF-539 CNS) was 1030 nM and 1230 nM. For the same compound, the TGI (SK-MEL-2 melanoma) was 472 nM and 482 nM, the GI50 (SK-MEL-28 melanoma) was 219 nM and the TGI (SK-MEL-28 melanoma) was 1090 nM and 1900 nM. For the same compound, the GI50 (SK-MEL-5 melanoma) was 162 nM, the TGI (SK-MEL-5 melanoma) was 324 nM and 214 nM and the GI50 (SK-OV-3 ovarian) was 268 nM. The TGI (SK-OV-3 ovarian) was 860 nM and 718 nM, the GI50 (SN12C renal) was 40 nM and the TGI (SN12C renal) was 1430 nM and 902 nM. The GI50 (SNB-19 CNS) was 222 nM, the TGI (SNB-19 CNS) was 1480 nM and 1710 nM and the GI50 (SNB-75 CNS) was 112 nM. The TGI (SNB-75 CNS) was 581 nM and 1030 nM, the TGI (SNB-78 CNS) was 5670 nM and the GI50 (SR leukemia) was 59.1 nM. For the same compound, the TGI (SR leukemia) was 672 nM and 3200 nM, the GI50 (SW-620 colon) was 69.3 nM and the TGI (SW-620 colon) was 1230 nM. For the same compound, the GI50 (T-47D breast) was 157 nM, the TGI (T-47D breast) was 1120 nM and the GI50 (TK-10 renal) was 162 nM. For the same compound, the TGI (TK-10 renal) was 864 nM, the GI50 (U251 CNS) was 46.2 nM and the TGI (U251 CNS) was 565 nM and 1140 nM. The GI50 (UACC-257 melanoma) was 228 nM, the TGI (UACC-257 melanoma) was 763 nM and 416 nM and the GI50 (UACC-62 melanoma) was 261 nM. For the same compound, the TGI (UACC-62 melanoma) was 1000 nM, the GI50 (UO-31 renal) was 284 nM and the TGI (UO-31 renal) was 1230 nM and 1010 nM. For the same compound, the TGI (XF 498 CNS) was 193 nM.
